Test results published in PubChem BioAssay AID330 (DTP/NCI, 2004).
Where “and” joins values, the source holds several entries; their conditions need not be identical. Equal values may be shown once. Inconclusive results and toxic doses are left out. The calls were made as follows: active = survival T/C of 150% or more; inactive = T/C below 125% in these data.

System: P388 leukemia ip, CD2F1 mice, survival T/C
Assay: NCI In Vivo Anticancer Drug Screen. Data for tumor model P388 Leukemia (intraperitoneal) in CD2F1 (CDF1) mice
Conditions: endpoint: median survival time, higher = longer survival
Summary of the method: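 Mice carrying the transplanted tumor received test compound or vehicle. Survival was recorded in each group, and the value is the treated-group measurement divided by that of the vehicle-treated control group.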

[1] = dose: 25.0 mg/kg/injection, schedule: Q01DX009 (ip), vehicle: other
[2] = dose: 50.0 mg/kg/injection, schedule: Q01DX009 (ip), vehicle: other
[3] = dose: 50.0 mg/kg/injection, schedule: Q01DX009 (ip), vehicle: saline with Tween-80
[4] = dose: 100.0 mg/kg/injection, schedule: Q01DX009 (ip), vehicle: saline with Tween-80
[5] = dose: 200.0 mg/kg/injection, schedule: Q01DX009 (ip), vehicle: saline with Tween-80
[6] = dose: 50.0 mg/kg/injection, schedule: Q01DX005 (ip), vehicle: Klucel (hydroxypropylcellulose) (HPC)
[7] = dose: 100.0 mg/kg/injection, schedule: Q01DX005 (ip), vehicle: Klucel (hydroxypropylcellulose) (HPC)
[8] = dose: 200.0 mg/kg/injection, schedule: Q01DX005 (ip), vehicle: Klucel (hydroxypropylcellulose) (HPC)
[9] = dose: 25.0 mg/kg/injection, schedule: Q01DX009 (ip), vehicle: Klucel (hydroxypropylcellulose) (HPC)
[10] = dose: 50.0 mg/kg/injection, schedule: Q01DX009 (ip), vehicle: Klucel (hydroxypropylcellulose) (HPC)
[11] = dose: 100.0 mg/kg/injection, schedule: Q01DX009 (ip), vehicle: Klucel (hydroxypropylcellulose) (HPC)

Measured: T/C

O=[N+](N=c1ccn([O-])cc1)c1cc[n+]([O-])cc1
inactive: dose: 1.56 mg/kg/injection, schedule: Q01DX009 (ip), vehicle: DMSO 107 % of control | dose: 3.0 mg/kg/injection, schedule: Q01DX009 (ip), vehicle: other 107 % of control | dose: 3.12 mg/kg/injection, schedule: Q01DX009 (ip), vehicle: DMSO 100 % of control | dose: 6.0 mg/kg/injection, schedule: Q01DX009 (ip), vehicle: other 102 % of control | dose: 6.25 mg/kg/injection, schedule: Q01DX009 (ip), vehicle: DMSO 107 % of control | dose: 12.5 mg/kg/injection, schedule: Q01DX009 (ip), vehicle: DMSO 100 % of control | dose: 12.5 mg/kg/injection, schedule: Q01DX009 (ip), vehicle: other 98 % of control | dose: 25.0 mg/kg/injection, schedule: Q01DX009 (ip), vehicle: DMSO 100 % of control | [1] 109 % of control | [2] 109 % of control

O=c1n(-c2ccccc2)c(=O)n2n1C1C3C4CCC1C4(Cl)C32 (stereo unspecified)
inactive: dose: 100.0 mg/kg/injection, schedule: Q01DX001 (ip), vehicle: saline with Tween-80 100 % of control | dose: 200.0 mg/kg/injection, schedule: Q01DX001 (ip), vehicle: saline with Tween-80 94 % of control | dose: 400.0 mg/kg/injection, schedule: Q01DX001 (ip), vehicle: saline with Tween-80 91 % of control

N#CSCc1ccc(Cl)cc1Cl
inactive: [3] 109 % of control | [4] 113 % of control | [5] 113 % of control

Cc1cccc(C)c1OC(=S)SSC(=S)Oc1c(C)cccc1C
inactive: dose: 100.0 mg/kg/injection, schedule: Q01DX001 (ip), vehicle: Klucel (hydroxypropylcellulose) (HPC) 94 % of control | dose: 200.0 mg/kg/injection, schedule: Q01DX001 (ip), vehicle: Klucel (hydroxypropylcellulose) (HPC) 87 % of control

CC/C=C(\CC)C(=O)O
inactive: dose: 50.0 mg/kg/injection, schedule: Q01DX009 (ip), vehicle: saline 90 % of control | dose: 100.0 mg/kg/injection, schedule: Q01DX009 (ip), vehicle: saline 100 % of control | dose: 200.0 mg/kg/injection, schedule: Q01DX009 (ip), vehicle: saline 102 % of control

O=[N+]([O-])c1ccc(S(=O)(=O)c2ccc([N+](=O)[O-])cc2)cc1
inactive: dose: 6.25 mg/kg/injection, schedule: Q04DX003 (ip), vehicle: suspension in saline 100 % of control | dose: 12.5 mg/kg/injection, schedule: Q04DX003 (ip), vehicle: suspension in saline 100 % of control | dose: 25.0 mg/kg/injection, schedule: Q04DX003 (ip), vehicle: suspension in saline 108 % of control | dose: 50.0 mg/kg/injection, schedule: Q04DX003 (ip), vehicle: suspension in saline 106 % of control

O=Cc1ccc(O)c(CN2CCCCC2)c1
inactive: dose: 6.25 mg/kg/injection, schedule: Q04DX003 (ip), vehicle: saline 109 % of control | dose: 12.5 mg/kg/injection, schedule: Q04DX003 (ip), vehicle: saline 100 % of control | dose: 25.0 mg/kg/injection, schedule: Q04DX003 (ip), vehicle: saline 100 % of control

COc1ccc(C2c3cc(O)c(OC)cc3Oc3cc(OC)c(O)cc32)cc1
inactive: [6] 87 % of control | [7] 94 % of control | [8] 96 % of control

Clc1ccccc1CN1COc2c(ccc3ccccc23)C1
inactive: dose: 100.0 mg/kg/injection, schedule: Q04DX003 (ip), vehicle: Klucel (hydroxypropylcellulose) (HPC) 95 % of control | dose: 200.0 mg/kg/injection, schedule: Q04DX003 (ip), vehicle: Klucel (hydroxypropylcellulose) (HPC) 100 % of control | dose: 400.0 mg/kg/injection, schedule: Q04DX003 (ip), vehicle: Klucel (hydroxypropylcellulose) (HPC) 104 % of control

Cc1ccc(C=Nc2ccc(Cl)c(Cl)c2)cc1
inactive: dose: 60.0 mg/kg/injection, schedule: Q01DX005 (ip), vehicle: saline with Tween-80 100 % of control | dose: 120.0 mg/kg/injection, schedule: Q01DX005 (ip), vehicle: saline with Tween-80 108 % of control | dose: 240.0 mg/kg/injection, schedule: Q01DX005 (ip), vehicle: saline with Tween-80 89 % of control

CC(Cc1ccccc1)NC(=O)c1cccnc1 (stereo unspecified)
inactive: [6] 98 % of control | [7] 90 % of control | [8] 99 % of control

COc1ccc(C(N)=O)cc1N=NN(C)C
inactive: dose: 3.12 mg/kg/injection, schedule: Q01DX009 (ip), vehicle: Klucel (hydroxypropylcellulose) (HPC) 103 % of control | dose: 3.13 mg/kg/injection, schedule: Q01DX009 (ip), vehicle: Klucel (hydroxypropylcellulose) (HPC) 103 % of control | dose: 6.25 mg/kg/injection, schedule: Q01DX009 (ip), vehicle: Klucel (hydroxypropylcellulose) (HPC) 98 % of control | dose: 12.5 mg/kg/injection, schedule: Q01DX009 (ip), vehicle: Klucel (hydroxypropylcellulose) (HPC) 107 % of control and 114 % of control | [9] 121 % of control and 123 % of control | [10] 118 % of control and 94 % of control

CN(C(=O)c1ccc(N)cc1)C1CCN(C2CCCCC2)C1 (stereo unspecified)
inactive: [10] 103 % of control | [11] 101 % of control

CO[C@H]1/C=C/O[C@@]2(C)Oc3c(C)c(O)c4c(O)c(c(/C=N/N5CCNCC5)c(O)c4c3C2=O)NC(=O)/C(C)=C\C=C\[C@H](C)[C@H](O)[C@@H](C)[C@@H](O)[C@@H](C)C(OC(C)=O)[C@@H]1C (stereo partly specified)
inactive: [4] 95 % of control | dose: 100.0 mg/kg/injection, schedule: Q04DX003 (ip), vehicle: saline with Tween-80 91 % of control | [5] 104 % of control | dose: 200.0 mg/kg/injection, schedule: Q04DX003 (ip), vehicle: saline with Tween-80 91 % of control | dose: 400.0 mg/kg/injection, schedule: Q04DX003 (ip), vehicle: saline with Tween-80 100 % of control

CCCCN(CCCC)c1nn[nH]n1
inactive: [6] 89 % of control | [7] 94 % of control | [8] 95 % of control

O=C1Nc2ncnc(Cl)c2Cc2ccccc21
inactive: [3] 100 % of control | [4] 104 % of control | [5] 104 % of control

Cn1cnc2cc(NCCO)c([N+](=O)[O-])cc2c1=O
inactive: dose: 100.0 mg/kg/injection, schedule: Q04DX003 (ip), vehicle: saline 105 % of control | dose: 200.0 mg/kg/injection, schedule: Q04DX003 (ip), vehicle: saline 119 % of control | dose: 400.0 mg/kg/injection, schedule: Q04DX003 (ip), vehicle: saline 96 % of control

C1CCNCC1.O=C([CH-]C(=O)C(F)(F)F)c1cccs1.O=C([CH-]C(=O)C(F)(F)F)c1cccs1.O=C([CH-]C(=O)C(F)(F)F)c1cccs1.O=C([CH-]C(=O)C(F)(F)F)c1cccs1.[Eu+3]
inactive: dose: 12.5 mg/kg/injection, schedule: Q01DX009 (ip), vehicle: saline with Tween-80 95 % of control | [9] 105 % of control | dose: 25.0 mg/kg/injection, schedule: Q01DX009 (ip), vehicle: saline with Tween-80 95 % of control | [10] 109 % of control | [3] 99 % of control | [11] 109 % of control | [4] 89 % of control

CCC1OC(OC)C=CC1=O (stereo unspecified)
inactive: dose: 12.5 mg/kg/injection, schedule: Q01DX005 (ip), vehicle: Klucel (hydroxypropylcellulose) (HPC) 113 % of control | dose: 12.5 mg/kg/injection, schedule: Q01DX005 (ip), vehicle: saline 101 % of control | dose: 25.0 mg/kg/injection, schedule: Q01DX005 (ip), vehicle: Klucel (hydroxypropylcellulose) (HPC) 114 % of control | dose: 25.0 mg/kg/injection, schedule: Q01DX005 (ip), vehicle: saline 108 % of control | [6] 124 % of control | dose: 50.0 mg/kg/injection, schedule: Q01DX005 (ip), vehicle: saline 98 % of control | dose: 100.0 mg/kg/injection, schedule: Q01DX005 (ip), vehicle: saline 104 % of control

CCC12OCCN1CCO2
inactive: dose: 200.0 mg/kg/injection, schedule: Q01DX009 (ip), vehicle: water 100 % of control | dose: 400.0 mg/kg/injection, schedule: Q01DX009 (ip), vehicle: water 100 % of control | dose: 800.0 mg/kg/injection, schedule: Q01DX009 (ip), vehicle: water 102 % of control | dose: 1600.0 mg/kg/injection, schedule: Q01DX009 (ip), vehicle: water 106 % of control

Nc1ncnc2nc(-c3ccc(OCc4ccccc4)cc3)[nH]c12
inactive: dose: 100.0 mg/kg/injection, schedule: Q01DX001 (ip), vehicle: saline 101 % of control | dose: 200.0 mg/kg/injection, schedule: Q01DX001 (ip), vehicle: saline 94 % of control | dose: 400.0 mg/kg/injection, schedule: Q01DX001 (ip), vehicle: saline 98 % of control

O=C(NC(Cc1ccc(F)cc1)C(=O)O)c1ccccc1 (stereo unspecified)
inactive: [1] 113 % of control | [2] 115 % of control | dose: 100.0 mg/kg/injection, schedule: Q01DX009 (ip), vehicle: other 110 % of control
